The values below come from PMC10562900 (RSC Advances, 2023).

For one experiment, the system named is MCF-7. The following applies: read-out: IC50 (cell viability); cited from earlier work.
The target in the next experiment is T1, h-ENPP1 (Homo sapiens, UniProt P22413).
T1 sequence (P22413 1-925): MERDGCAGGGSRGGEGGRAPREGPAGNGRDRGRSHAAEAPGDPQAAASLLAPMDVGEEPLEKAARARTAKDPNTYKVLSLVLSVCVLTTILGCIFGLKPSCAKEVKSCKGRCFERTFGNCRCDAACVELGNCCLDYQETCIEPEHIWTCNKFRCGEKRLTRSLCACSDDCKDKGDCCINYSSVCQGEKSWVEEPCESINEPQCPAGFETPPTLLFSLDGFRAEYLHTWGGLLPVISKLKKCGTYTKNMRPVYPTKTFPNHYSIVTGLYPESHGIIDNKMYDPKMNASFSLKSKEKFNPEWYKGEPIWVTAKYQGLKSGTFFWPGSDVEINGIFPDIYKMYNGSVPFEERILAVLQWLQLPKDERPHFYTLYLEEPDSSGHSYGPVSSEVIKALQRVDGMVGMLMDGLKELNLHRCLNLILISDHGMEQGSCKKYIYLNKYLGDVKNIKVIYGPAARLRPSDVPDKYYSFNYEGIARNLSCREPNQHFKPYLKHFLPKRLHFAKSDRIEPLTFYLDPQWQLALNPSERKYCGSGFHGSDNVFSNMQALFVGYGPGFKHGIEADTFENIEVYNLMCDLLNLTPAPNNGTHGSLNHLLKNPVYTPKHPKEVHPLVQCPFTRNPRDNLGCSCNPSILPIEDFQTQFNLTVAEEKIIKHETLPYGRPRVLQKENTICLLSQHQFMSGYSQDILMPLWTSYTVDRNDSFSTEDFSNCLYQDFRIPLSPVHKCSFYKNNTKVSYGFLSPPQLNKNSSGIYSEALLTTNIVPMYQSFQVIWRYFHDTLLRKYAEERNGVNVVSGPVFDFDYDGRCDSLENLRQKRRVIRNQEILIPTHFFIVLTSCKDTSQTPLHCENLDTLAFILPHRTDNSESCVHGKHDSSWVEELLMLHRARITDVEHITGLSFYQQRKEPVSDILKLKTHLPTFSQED
Kind of experiment: h-ENPP1 inhibition assay. The format is biochemical. The settings on record: read-out: inhibition% h-ENPP1.

The next experiment addresses T2, h-e5′NT (Homo sapiens, UniProt P21589).
T2 sequence (P21589 27-574): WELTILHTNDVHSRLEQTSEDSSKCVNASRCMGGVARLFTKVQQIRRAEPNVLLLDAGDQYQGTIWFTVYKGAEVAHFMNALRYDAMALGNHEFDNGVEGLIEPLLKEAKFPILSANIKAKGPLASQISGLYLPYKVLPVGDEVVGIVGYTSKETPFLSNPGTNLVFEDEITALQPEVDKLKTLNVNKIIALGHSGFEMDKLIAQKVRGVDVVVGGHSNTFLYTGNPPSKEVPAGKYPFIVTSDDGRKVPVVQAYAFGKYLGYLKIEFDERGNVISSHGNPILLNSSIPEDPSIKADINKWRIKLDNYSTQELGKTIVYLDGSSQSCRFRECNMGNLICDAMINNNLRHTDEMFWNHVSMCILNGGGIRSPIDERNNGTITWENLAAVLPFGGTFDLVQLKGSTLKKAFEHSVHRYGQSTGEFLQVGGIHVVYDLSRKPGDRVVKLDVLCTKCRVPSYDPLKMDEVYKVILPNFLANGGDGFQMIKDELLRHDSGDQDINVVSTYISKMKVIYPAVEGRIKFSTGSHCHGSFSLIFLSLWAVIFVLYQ
The experiment can be described thus: CD73. The format is biochemical. The settings on record: for inhibition at 100 µM: read-out: inhibition% h-e5′NT.

Another experiment concerns the target T3, r-e5′NT (Rattus norvegicus, UniProt P21588).
T3 sequence (P21588 29-576): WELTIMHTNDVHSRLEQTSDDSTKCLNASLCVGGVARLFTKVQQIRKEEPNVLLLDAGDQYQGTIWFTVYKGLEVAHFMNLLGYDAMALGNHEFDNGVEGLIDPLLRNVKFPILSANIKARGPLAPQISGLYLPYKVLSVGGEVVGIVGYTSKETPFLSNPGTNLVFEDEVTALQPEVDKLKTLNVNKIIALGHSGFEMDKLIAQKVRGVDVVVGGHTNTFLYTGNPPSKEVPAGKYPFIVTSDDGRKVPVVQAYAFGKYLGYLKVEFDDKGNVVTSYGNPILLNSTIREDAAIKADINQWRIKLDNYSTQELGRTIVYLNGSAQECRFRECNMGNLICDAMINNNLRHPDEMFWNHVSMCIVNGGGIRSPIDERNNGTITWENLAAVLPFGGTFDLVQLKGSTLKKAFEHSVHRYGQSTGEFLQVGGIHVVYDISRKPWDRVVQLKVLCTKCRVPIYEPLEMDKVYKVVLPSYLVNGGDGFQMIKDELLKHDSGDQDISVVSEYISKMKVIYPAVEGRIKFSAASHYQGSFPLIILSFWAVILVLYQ
Kind of experiment: CD73. In kind it is biochemical. The settings on record: for inhibition at 100 µM: read-out: inhibition% r-e5′NT.

The next experiment has as its target T4, h-ENPP3 (Homo sapiens, UniProt O14638).
T4 sequence (O14638 1-875): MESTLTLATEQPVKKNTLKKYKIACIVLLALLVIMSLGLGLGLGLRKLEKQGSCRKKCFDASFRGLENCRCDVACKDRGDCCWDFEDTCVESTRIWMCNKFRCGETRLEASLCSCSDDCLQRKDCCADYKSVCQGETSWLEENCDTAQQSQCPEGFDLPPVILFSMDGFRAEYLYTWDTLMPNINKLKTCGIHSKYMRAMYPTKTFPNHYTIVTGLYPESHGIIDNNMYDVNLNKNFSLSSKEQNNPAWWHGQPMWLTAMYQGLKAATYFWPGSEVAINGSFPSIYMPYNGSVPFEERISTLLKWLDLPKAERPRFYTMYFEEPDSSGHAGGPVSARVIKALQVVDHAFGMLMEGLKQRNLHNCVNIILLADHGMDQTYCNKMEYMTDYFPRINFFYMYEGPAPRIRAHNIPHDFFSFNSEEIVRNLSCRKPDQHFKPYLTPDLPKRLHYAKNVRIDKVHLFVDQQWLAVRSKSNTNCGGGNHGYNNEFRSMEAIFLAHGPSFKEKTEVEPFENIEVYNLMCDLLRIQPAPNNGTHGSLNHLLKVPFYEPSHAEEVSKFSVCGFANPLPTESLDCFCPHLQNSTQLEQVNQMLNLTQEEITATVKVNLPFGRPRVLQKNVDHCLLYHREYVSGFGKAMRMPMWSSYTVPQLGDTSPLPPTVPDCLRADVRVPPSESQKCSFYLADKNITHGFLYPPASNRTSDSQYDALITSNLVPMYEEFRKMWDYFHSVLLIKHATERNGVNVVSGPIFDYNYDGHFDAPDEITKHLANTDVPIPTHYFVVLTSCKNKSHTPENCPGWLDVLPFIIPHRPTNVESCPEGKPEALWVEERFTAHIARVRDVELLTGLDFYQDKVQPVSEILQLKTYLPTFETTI
Kind of experiment: h-ENPP3 inhibition assay. In kind it is biochemical. The settings on record: for selectivity for h-ENPP3 between the two h-ENPP isozymes: h-ENPP3 versus h-ENPP1.

The next experiment concerns the target T5, h-TNAP (Homo sapiens, UniProt P05186).
T5 sequence (P05186 18-524): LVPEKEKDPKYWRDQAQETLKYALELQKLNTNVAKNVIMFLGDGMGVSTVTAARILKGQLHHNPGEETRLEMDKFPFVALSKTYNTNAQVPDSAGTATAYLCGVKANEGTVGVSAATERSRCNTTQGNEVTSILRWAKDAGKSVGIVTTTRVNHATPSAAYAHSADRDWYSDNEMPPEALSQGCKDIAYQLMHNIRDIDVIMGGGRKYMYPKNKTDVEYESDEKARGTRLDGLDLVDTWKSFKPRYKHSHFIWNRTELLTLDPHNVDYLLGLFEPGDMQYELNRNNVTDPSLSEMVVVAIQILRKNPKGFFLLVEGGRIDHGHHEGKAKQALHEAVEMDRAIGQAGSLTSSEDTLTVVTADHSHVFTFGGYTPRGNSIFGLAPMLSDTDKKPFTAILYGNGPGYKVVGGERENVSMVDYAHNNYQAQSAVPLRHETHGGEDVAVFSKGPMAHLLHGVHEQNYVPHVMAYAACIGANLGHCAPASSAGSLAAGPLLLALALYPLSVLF
Kind of experiment: h-TNAP inhibition assay. The format is biochemical. The settings on record: for inhibition at 100 µM: read-out: inhibition% h-TNAP.

For `COc1cccc(OS(=O)(=O)c2ccc(C)cc2)c1` [3-methoxyphenyl p-toluenesulfonate], in the experiment with MCF-7, the IC50 is 89800 nM.
On to `Cc1ccc(S(=O)(=O)Oc2ccccc2NC(=O)Cc2c[nH]c3ccccc23)cc1` [5o, 2-(2-(1H-indol-3-yl)acetamido)phenyl 4-methylbenzenesulfonate], for which, on h-ENPP1, the inhibition at 100 µM is 28.3%. For the same compound, the IC50 on h-e5′NT worked out at 3210 ± 830 nM; on r-e5′NT, 4860 ± 40 nM; at h-ENPP3 it was 2670 ± 460 nM; on h-TNAP, 3370 ± 50 nM. Further, the “selectivity for h-ENPP3 between the two h-ENPP isozymes” value at h-ENPP3 was “more effective and selective for h-ENPP3”.
Turning to `O=C(Cc1c[nH]c2ccccc12)Nc1ccccc1OS(=O)(=O)c1ccc(-c2ccccc2)cc1` [5e, 2-(2-(1H-indol-3-yl)acetamido)phenyl [1,1′-biphenyl]-4-sulfonate], the figures for the IC50 against h-e5′NT, on r-e5′NT and against h-TNAP were 560 ± 16 nM, 980 ± 20 nM and 1060 ± 30 nM, respectively.
For `O=C(Cc1c[nH]c2ccccc12)Nc1ccccc1OS(=O)(=O)c1cccc2cccnc12` [5m, 2-(2-(1H-indol-3-yl)acetamido)phenyl quinoline-8-sulfonate], the IC50 at h-e5′NT was 6530 ± 670 nM; against h-TNAP it was 1300 ± 380 nM. In addition, at r-e5′NT, the inhibition at 100 µM was found to be 30%.
Take `O=C(Cc1c[nH]c2ccccc12)Nc1ccccc1OS(=O)(=O)C(F)(F)F` [5j, 2-(2-(1H-indol-3-yl)acetamido)phenyl trifluoromethanesulfonate]: the 50% inhibitory concentration (IC50) at h-e5′NT stood at 890 ± 40 nM; against r-e5′NT, 5120 ± 610 nM; against h-TNAP it was 1680 ± 70 nM.
For the compound `CC(C)S(=O)(=O)Oc1ccccc1NC(=O)Cc1c[nH]c2ccccc12` [5k, 2-(2-(1H-indol-3-yl)acetamido)phenyl propane-2-sulfonate], the inhibition at 100 µM on h-e5′NT was found to be 37.5%; on r-e5′NT, 28.6%; on h-TNAP, 31.8%.
Compound `O=C(Cc1c[nH]c2ccccc12)Nc1ccccc1OS(=O)(=O)Cc1ccccc1` [5b, 2-(2-(1H-indol-3-yl)acetamido)phenyl phenylmethanesulfonate] had an IC50 against h-e5′NT of 13200 ± 3140 nM. The inhibition at 100 µM stood at 38.5% on r-e5′NT and 42.4% at h-TNAP.
Consider `O=C(Cc1c[nH]c2ccccc12)Nc1ccccc1OS(=O)(=O)c1ccc(Cl)cc1` [5l, 2-(2-(1H-indol-3-yl)acetamido)phenyl 4-chlorobenzenesulfonate], for which the IC50 on h-e5′NT was determined as 430 ± 30 nM; at r-e5′NT it was 5670 ± 110 nM; at h-TNAP, 1690 ± 180 nM.
With `COc1ccc(OS(=O)(=O)c2ccc(C)cc2)cc1` [p-methoxyphenyl p-toluenesulfonate], the IC50 with MCF-7 was 126000 nM.
Regarding `COc1ccc(S(=O)(=O)Oc2ccccc2NC(=O)Cc2c[nH]c3ccccc23)cc1` [5d, 2-(2-(1H-indol-3-yl)acetamido)phenyl 4-methoxy-benzenesulfonate], the IC50 at h-e5′NT was 3460 ± 120 nM; against r-e5′NT, 1770 ± 120 nM; at h-TNAP it was 5180 ± 460 nM.
For `O=C(Cc1c[nH]c2ccccc12)Nc1ccccc1OS(=O)(=O)c1ccc(Br)cc1` [5f, 2-(2-(1H-indol-3-yl)acetamido)phenyl 4-bromobenzenesulfonate], in that order: 690 ± 1 nM, 1640 ± 20 nM and 6580 ± 250 nM.
As for `O=C(Cc1c[nH]c2ccccc12)Nc1ccccc1OS(=O)(=O)c1ccccc1Cl` [5a, 2-(2-(1H-indol-3-yl)acetamido)phenyl 2-chlorobenzenesulfonate], the IC50 at h-e5′NT was found to be 1190 ± 20 nM; against h-TNAP it was 1600 ± 110 nM. Further, the inhibition at 100 µM at r-e5′NT came out at 22.7%.
Take `Cc1ccc(S(=O)(=O)Oc2ccccc2NC(=O)Cc2c[nH]c3ccccc23)cc1Cl` [5g, 2-(2-(1H-indol-3-yl)acetamido)phenyl 3-chloro-4-methylbenzenesulfonate]: the IC50 is 4410 ± 190 nM against h-e5′NT, 1850 ± 110 nM on r-e5′NT and 590 ± 80 nM against h-TNAP.
Take `O=C(Cc1c[nH]c2ccccc12)Nc1ccccc1OS(=O)(=O)c1cccs1` [5n, 2-(2-(1H-indol-3-yl)acetamido)phenyl thiophene-2-sulfonate]: the inhibition at 100 µM came to 38% on h-ENPP1, 44.7% on h-e5′NT, 46.6% at r-e5′NT and 28.9% on h-TNAP. Further, at h-ENPP3, the IC50 was 2550 ± 70 nM. At h-ENPP3, the “selectivity for h-ENPP3 between the two h-ENPP isozymes” value is “more effective and selective for h-ENPP3”.

For orientation: IC50 means the point on the concentration scale where inhibition reaches its midpoint. Usually inhibition stands for the relative decrease from the control value, in per cent.
